B1: Tyrosinase (Agaricus bisporus), O42713 (protein)
chain: MSLIATVGPTGGVKNRLNIVDFVKNEKFFTLYVRSLELLQAKEQHDYSSFFQLAGIHGLPFTEWAKERPSMNLYKAGYCTHGQVLFPTWHRTYLSVLEQILQGAAIEVAKKFTSNQTDWVQAAQDLRQPYWDWGFELMPPDEVIKNEEVNITNYDGKKISVKNPILRYHFHPIDPSFKPYGDFATWRTTVRNPDRNRREDIPGLIKKMRLEEGQIREKTYNMLKFNDAWERFSNHGISDDQHANSLESVHDDIHVMVGYGKIEGHMDHPFFAAFDPIFWLHHTNVDRLLSLWKAINPDVWVTSGRNRDGTMGIAPNAQINSETPLEPFYQSGDKVWTSASLADTARLGYSYPDFDKLVGGTKELIRDAIDDLIDERYGSKPSSGARNTAFDLLADFKGITKEHKEDLKMYDWTIHVAFKKFELKESFSLLFYFASDGGDYDQENCFVGSINAFRGTAPETCANCQDNENLIQEGFIHLNHYLARDLESFEPQDVHKFLKEKGLSYKLYSRGDKPLTSLSVKIEGRPLHLPPGEHRPKYDHTQARVVFDDVAVHVIN

Columns and labels:
[1] = biological target: T1, Tyrosinase (Mus musculus) (UniProt P11344); test: Inhibition of tyrosinase in alpha-MSH-induced mouse B16 cells at 10 uM; type: cell-based
T1 sequence (whole entry): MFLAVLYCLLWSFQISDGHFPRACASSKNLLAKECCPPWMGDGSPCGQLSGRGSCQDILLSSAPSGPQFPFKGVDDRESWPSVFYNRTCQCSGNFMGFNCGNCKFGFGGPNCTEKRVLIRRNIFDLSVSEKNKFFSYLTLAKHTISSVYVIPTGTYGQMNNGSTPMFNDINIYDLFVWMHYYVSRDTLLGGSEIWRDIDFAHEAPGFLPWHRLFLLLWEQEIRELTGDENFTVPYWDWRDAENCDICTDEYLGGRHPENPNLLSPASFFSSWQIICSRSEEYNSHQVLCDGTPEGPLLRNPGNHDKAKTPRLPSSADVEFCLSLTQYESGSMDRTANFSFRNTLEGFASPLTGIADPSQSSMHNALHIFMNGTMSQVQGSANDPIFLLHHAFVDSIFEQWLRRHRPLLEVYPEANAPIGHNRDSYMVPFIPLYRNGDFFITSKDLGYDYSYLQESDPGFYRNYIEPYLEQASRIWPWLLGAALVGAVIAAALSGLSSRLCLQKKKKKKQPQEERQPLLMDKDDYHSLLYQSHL

[2] = biological target: T1, Tyrosinase (Mus musculus); test: Inhibition of tyrosinase in alpha-MSH-induced mouse B16 cells at 5 uM; type: cell-based
[3] = biological target: T1, Tyrosinase (Mus musculus); test: Inhibition of tyrosinase in alpha-MSH-induced mouse B16 cells at 2.5 uM; type: cell-based
[4] = biological target: T1, Tyrosinase (Mus musculus); test: Inhibition of tyrosinase in alpha-MSH-induced mouse B16 cells at 1 uM; type: cell-based
[5] = system: B16; test: Cytotoxicity against mouse B16 cells assessed as viable cells at 10 uM after 48 hrs by MTT assay relative to control; type: functional; conditions: B16, 48 h, read-out: Activity
[6] = system: B16; test: Cytotoxicity against mouse B16 cells assessed as viable cells at 5 uM after 48 hrs by MTT assay relative to control; type: functional; conditions: B16, 48 h, read-out: Activity
[7] = system: B16; test: Cytotoxicity against mouse B16 cells assessed as viable cells at 2.5 uM after 48 hrs by MTT assay relative to control; type: functional; conditions: B16, 48 h, read-out: Activity
[8] = system: B16; test: Cytotoxicity against mouse B16 cells assessed as viable cells at 1 uM after 48 hrs by MTT assay relative to control; type: functional; conditions: B16, 48 h, read-out: Activity
[9] = system: B16; test: Cytotoxicity against mouse B16 cells assessed as viable cells at 0.2 uM after 48 hrs by MTT assay relative to control; type: functional; conditions: B16, 48 h, read-out: Activity
[10] = biological target: T2, Tyrosinase (Agaricus bisporus) (UniProt O42713); test: Inhibition of mushroom tyrosinase at 0.08 uM using L-tyrosine as a substrate
T2 sequence (whole entry): B1 chain

[11] = biological target: T2, Tyrosinase (Agaricus bisporus); test: Inhibition of mushroom tyrosinase at 0.01 uM using L-tyrosine as a substrate
[12] = biological target: T3, Tyrosinase (Agaricus bisporus, UniProt O42713)
T3 sequence (O42713 whole entry): B1 chain
Description: Inhibition of mushroom tyrosinase using L-tyrosine as a substrate

[13] = biological target: T3, Tyrosinase; remark: listed apart in the source
Description: Inhibition of mushroom tyrosinase at 1.25 uM by Lineweaver-Burk plot analysis

[14] = biological target: T3, Tyrosinase; remark: listed apart in the source
Description: Inhibition of mushroom tyrosinase at 20 uM by Lineweaver-Burk plot analysis

[15] = system: B16; test: cells; conditions: Mus musculus, B16, 24 h, read-out: INH
Description: Inhibition of alpha-MSH-induced melanin production in mouse B16 cells at 10 uM after 24 hrs relative to control

[16] = system: B16; test: cells; conditions: Mus musculus, B16, 24 h, read-out: INH; remark: listed apart in the source
Description: Inhibition of alpha-MSH-induced melanin production in mouse B16 cells at 5 uM after 24 hrs relative to control

[17] = system: B16; test: cells; conditions: Mus musculus, B16, 24 h, read-out: INH; remark: listed apart in the source
Description: Inhibition of alpha-MSH-induced melanin production in mouse B16 cells at 2.5 uM after 24 hrs relative to control

[18] = system: B16; test: cells; conditions: Mus musculus, B16, 24 h, read-out: INH; remark: listed apart in the source
Description: Inhibition of alpha-MSH-induced melanin production in mouse B16 cells at 1 uM after 24 hrs relative to control

[19] = system: B16; test: cells; conditions: Mus musculus, B16, 24 h, read-out: INH; remark: listed apart in the source
Description: Inhibition of alpha-MSH-induced melanin production in mouse B16 cells at 0.2 uM after 24 hrs relative to control

[20] = substrate: Oc1ccc(-c2nc3ccccc3s2)c(O)c1; conditions: Agaricus bisporus; 1.25 uM
[21] = substrate: Oc1ccc(-c2nc3ccccc3s2)cc1; conditions: Agaricus bisporus; 1.25 uM
[22] = substrate: Oc1ccc(-c2nc3ccccc3s2)c(O)c1; test: (§1) Activity of mushroom tyrosinase at 20 uM by Lineweaver-Burk plot analysis; conditions: Agaricus bisporus
[23] = substrate: Oc1ccc(-c2nc3ccccc3s2)cc1; test: as §1; conditions: Agaricus bisporus

| Molecule | inhibition [1] | inhibition [2] | inhibition [3] | viability at 10 µM [5] | viability at 5 µM [6] | viability at 2.5 µM [7] | viability at 1 µM [8] | viability at 0.2 µM [9] | inhibition [10] | inhibition [11] | IC50 [12] | Ki [13] | Ki [14] | inhibition at 10 µM [15] | inhibition at 5 µM [16] | inhibition at 2.5 µM [17] | inhibition at 1 µM [18] | inhibition at 0.2 µM [19] | other results |
| --- | --- | --- | --- | --- | --- | --- | --- | --- | --- | --- | --- | --- | --- | --- | --- | --- | --- | --- | --- |
| Oc1ccc(-c2nc3ccccc3s2)cc1 | 95.2% | 97.7% | 98.8% | 95.8% | 96.5% | 97.6% | 98.9% | 99.7% | 46.2% | 45.4% | 1140 nM | 567 nM | 1700 nM | 97.1% | 104% | 129% | 188% | 201% | inhibition [4]: 133% |
| Oc1ccc(-c2nc3ccccc3s2)c(O)c1 | 99.6% | 108% | 111% | 94.4% | 94.6% | 94.7% | 94.9% | 96.3% | 70.8% | 49.9% | 10 nM | 673 nM | 7700 nM | 131% | 141% | 190% | 217% | 224% |  |
| B1 |  |  |  |  |  |  |  |  |  |  |  |  |  |  |  |  |  |  | Km [20]: 1160 µM; Km [21]: 1020 µM; Km [22]: 1460 µM; Km [23]: 5650 µM |
